Source: US20180271470A1, “METHODS FOR QUANTIFYING PANCREATIC BETA CELL FUNCTION AND MASS PROPERTIES WITH RADIOMANGANESE POSITRON EMISSION TOMOGRAPHY” (Wisconsin Alumni Research Foundation, priority 2017, published 2018)
Each block holds one compound with its values, some of them ahead of it.

Columns and labels:
[1] = [^18F]-FDG study; cited from earlier work
[2] = mice, other studies; cited from earlier work
[3] = Ex vivo ^51Mn biodistribution by gamma counting; type: in vivo, ICR mice; conditions: awake I.V. bolus, gamma counting after 1 h PET
Procedure: (§1) All animal studies were conducted under a protocol approved by the University of Wisconsin Institutional Animal Care and Use Committee. Non-fasted healthy ICR mice (Envigo, Indianapolis, Ind.) were divided into two groups. Mice in the first group (n=2) were anaesthetized by isoflurane (4% induction, 1% maintenance), tail-vein catheters were affixed, and mice were placed on the microPET/CT bed in a prone position (Inveon, Siemens Preclinical Solutions, Knoxville, Tenn.). Dynamic PET acquisition was started and ^51Mn^2+ was administered in a rapid bolus (3.3 MBq, 200 μl, 10% 0.01 M NaOAc/90% PBS) through the tail-vein catheter. Sixty minutes of dynamic PET data were acquired following ^51Mn^2+ administration. Due to the impact of volatile anesthetics on voltage-dependent calcium channel (VDCC) activation, the second group (n=3) received an intravenous (I.V.) bolus of ^51Mn^2+ (1.6 MBq, 200 μL, 10% 0.01 M NaOAc/90% PBS) while awake. 60 minutes post-injection mice were anaesthetized by isoflurane and a 10 minute static PET scan acquired. Following imaging, mice were immediately sacrificed by CO2 asphyxiation, and organs were extracted. Ex vivo biodistribution measurements were performed by gamma counting (Wizard 2480, PerkinElmer, Waltham, Mass.).

[4] = OLINDA dosimetry calculations for Mn-51 and daughter Cr-51; set-up: species or system human; conditions: OLINDA input
Procedure: Due to the rapid blood clearance of Mn^2+, OLINDA (Organ Level INternal Dose Assessment) dosimetry calculations were performed assuming instant compartment localization with organ activity fractions equal to those measured by ex vivo biodistribution herein. Based on the previously measured lengthy organ residence times of Mn^2+, it was also assumed that the effective organ clearance half-life (Ter) was equal to the radioactive half-life of Mn-51 (t1/2: 45.6 min). It was also assumed that Mn-51 injections were 100% radionuclidically pure. In regards to the daughter isotope, Cr-51 (t1/2: 27.7 d), it was assumed that the activity remained in same organ compartments as the parent Mn-51 biodistribution without biological clearance. Standard radiation weighting factors were used (γ=1, β=1). Based on these assumptions, effective dose (ED) and effective dose equivalent (EDE) (units of mSv/MBq) were calculated for a standard adult male and female.

[5] = Static PET of ^51Mn^2+ injected in awake mice; type: in vivo, ICR mice; conditions: I.V. bolus non-anaesthetized, n=3, PET 60 minutes post-injection
Procedure: as §1, with “Mass.). […]” for “Mass.).”

[6] = Dynamic PET of ^51Mn^2+ rapid IV bolus under isoflurane; type: in vivo, ICR mice
Procedure: as §1
Dynamic PET data were binned into […] (12×5 s, 6×10 s, 6×30 s, 6×150 s, 6×300 s) and frames were reconstructed using non-scatter-corrected 3D ordered-subset expectation maximization followed by maximum a posteriori reconstruction (OSEM3D/MAP). Static PET data were reconstructed into a single frame by OSEM3D/MAP.

Compound: OC[C@H]1OC(O)[C@H]([18F])[C@@H](O)[C@@H]1O (some centres unmarked) [[^18F]-FDG]
average dose for a study [1]: 14.1 mSv

Compound: [63Zn+2] [^63Zn^2+]
pancreatic uptake [2]: significant

Mn-51 uptake in heart, ex vivo biodistribution [3]: 5.6±1.8 SUV
Mn-51 uptake in kidneys, ex vivo biodistribution [3]: 9.2±0.7 SUV
Mn-51 uptake in pancreas, ex vivo biodistribution [3]: 7.0±1.3 SUV
Number of disintigrations, Total Body ([4]; Total Body): 8.70E−01 MBq-h/MBq
Number of disintigrations, Adrenals ([4]; source organ Adrenals): 0.00E+00 MBq-h/MBq
Number of disintigrations, Brain ([4]; source organ Brain): 4.43E−03 MBq-h/MBq
Number of disintigrations, Breasts ([4]; source organ Breasts): 0.00E+00 MBq-h/MBq
Number of disintigrations, Cortical Bone ([4]; source organ Cortical Bone): 8.40E−04 MBq-h/MBq
Number of disintigrations, Gallbladder Contents ([4]; source organ Gallbladder Contents): 0.00E+00 MBq-h/MBq
Number of disintigrations, Heart Contents ([4]; source organ Heart Contents): 0.00E+00 MBq-h/MBq
Number of disintigrations, Heart Wall ([4]; source organ Heart Wall): 2.37E−02 MBq-h/MBq
Number of disintigrations, Kidneys ([4]; source organ Kidneys): 6.91E−02 MBq-h/MBq
Number of disintigrations, LLI ([4]; source organ LLI): 0.00E+00 MBq-h/MBq
Number of disintigrations, Liver ([4]; source organ Liver): 6.30E−02 MBq-h/MBq
Number of disintigrations, Lungs ([4]; source organ Lungs): 1.68E−02 MBq-h/MBq
Number of disintigrations, Muscle ([4]; source organ Muscle): 2.18E−03 MBq-h/MBq
Number of disintigrations, Ovaries ([4]; source organ Ovaries): 0.00E+00 MBq-h/MBq
Number of disintigrations, Pancreas ([4]; source organ Pancreas): 4.11E−02 MBq-h/MBq
Number of disintigrations, Red Marrow ([4]; source organ Red Marrow): 0.00E+00 MBq-h/MBq
Number of disintigrations, Small Intestine ([4]; source organ Small Intestine): 0.00E+00 MBq-h/MBq
Number of disintigrations, Spleen ([4]; source organ Spleen): 9.16E−03 MBq-h/MBq
Number of disintigrations, Stomach ([4]; source organ Stomach): 0.00E+00 MBq-h/MBq
Number of disintigrations, Testes ([4]; source organ Testes): 0.00E+00 MBq-h/MBq
Number of disintigrations, Thymus ([4]; source organ Thymus): 0.00E+00 MBq-h/MBq
Number of disintigrations, Thyroid ([4]; source organ Thyroid): 0.00E+00 MBq-h/MBq
Number of disintigrations, Trabecular Bone ([4]; source organ Trabecular Bone): 0.00E+00 MBq-h/MBq
Number of disintigrations, ULI ([4]; source organ ULI): 6.42E−03 MBq-h/MBq
Number of disintigrations, Urinary Bladder Contents ([4]; source organ Urinary Bladder Contents): 0.00E+00 MBq-h/MBq
Number of disintigrations, Uterus/Uterine Wall ([4]; source organ Uterus/Uterine Wall): 0.00E+00 MBq-h/MBq
kidney uptake, static PET subjects [5]: 7.7±1.1 SUV
kidney uptake, anaesthetized dynamic PET subjects ([6]; I.V. bolus under isoflurane, n=2): 13.7±2.6 SUV
duration of initial distribution ([6]; rapid IV bolus, dynamic PET): < 1 min
heart blood-pool clearance half-life ([6]; rapid IV bolus, heart TAC 0.375 to 3.25 minutes post-injection): 7.7 ± 0.7 s
Compound: ^51MnCl2 [Mn-51]
